Values after ≈ are worked out from the molar mass of the structure shown.
Tests used:
[1] = Solubility of crystal forms in buffers, biorelevant media and water (HPLC, XRPD of residual solid); assay type: physicochemical; details: for pH (24 h): 5 mg/mL suspension stirred at 37°C, pH of the solution at 24 h; for Solubility at 37°C (mg/mL) 2 h: 120 min
Method: The solubility of the two crystal forms at 2 hours and 24 hours and the pH of the solution at 24 hours were tested. The solid was filtered, and the resulting solid was tested for XRPD.

[2] = Hygroscopicity by dynamic vapor sorption (DVS); assay type: physicochemical
Method: Samples are analyzed for hygroscopicity using Intrinsic DVS ([…], UK). Approximately 10 to 30 mg of sample is used for testing. The testing chamber is controlled at a temperature of 25 ± 1°C with the specific testing parameters shown below: […]

[3] = Physicochemical stability of crystal forms (HPLC purity, XRPD)
[4] = Mechanical stability: dry grinding, wet grinding, tableting (XRPD); assay type: physicochemical
Method: Dry grinding: approximately 10 mg of the starting sample was ground for 3 minutes in a mortar, and then subjected to XRPD testing.
Wet grinding: approximately 10 mg of the starting sample was ground with 1 to 2 drops of solvent for 3 minutes in a mortar, and then subjected to XRPD testing.
Tableting experiment: approximately 10 mg of the starting sample was compressed at 20 MPa for 3 minutes, and then subjected to XRPD testing.

[5] = Dry grinding, 3 minutes in a mortar, no solvent
[6] = Tableting, 20 MPa for 3 minutes, solvent EA
[7] = Wet grinding, solvent EtOH, 3 minutes in a mortar
[8] = Wet grinding, solvent Water, 3 minutes in a mortar

COc1cc2nn(C3CC4(CCN(C(=O)C5CCN(c6ccc7c(c6)C(=O)N(C6CCC(=O)NC6=O)C7=O)CC5)CC4)C3)cc2cc1NC(=O)c1cccc(C(F)(F)F)n1 (single isomer, unassigned) [crystal form A]
pH (24 h) ([1]; FaSSIF): 6.570
Solubility at 37°C (mg/mL) 2 h ([1]; FaSSIF, 37°C, 2 h): 0.00461 mg/mL (≈ 5.58 µM)
Solubility at 37°C (mg/mL) 24 h ([1]; FaSSIF, 37°C, 1440 min): 0.00285 mg/mL (≈ 3.45 µM)
solubility ([1]; FeSSIF, stirring at 37°C for 24 hours, 1440 min): approximately 0.004 mg/mL
pH (24 h) ([1]; FeSSIF): 5.032
Solubility at 37°C (mg/mL) 2 h ([1]; FeSSIF, 37°C, 2 h): 0.00391 mg/mL (≈ 4.73 µM)
Solubility at 37°C (mg/mL) 24 h ([1]; FeSSIF, 37°C, 1440 min): 0.00414 mg/mL (≈ 5.01 µM)
pH (24 h) ([1]; SGF): 1.225
pH (24 h) ([1]; Water): 7.311
Solubility at 37°C (mg/mL) 24 h ([1]; Water, 37°C, 1440 min): 0.00075 mg/mL (≈ 0.907 µM)
Crystal form ([1]; XRPD of residual solid after stirring in FaSSIF at 37°C for 24 hours): Crystal form A
Crystal form ([1]; XRPD of residual solid after stirring in FeSSIF at 37°C for 24 hours): Crystal form A
Crystal form ([1]; XRPD of residual solid after stirring in SGF at 37°C for 24 hours): Crystal form A
Crystal form ([1]; XRPD of residual solid after stirring in Water at 37°C for 24 hours): Crystal form A
Crystal form ([1]; XRPD of residual solid after stirring in pH 1.2 buffer at 37°C for 24 hours): Crystal form A
Crystal form ([1]; XRPD of residual solid after stirring in pH 3.0 buffer at 37°C for 24 hours): Crystal form A
Crystal form ([1]; XRPD of residual solid after stirring in pH 4.5 buffer at 37°C for 24 hours): Crystal form A
Crystal form ([1]; XRPD of residual solid after stirring in pH 6.8 buffer at 37°C for 24 hours): Crystal form A
Crystal form ([1]; XRPD of residual solid after stirring in pH 7.4 buffer at 37°C for 24 hours): Crystal form A
solubility at 24 h ([1]; fassif, stirring at 37°C for 24 hours, read-out: solubility): ~4 µg/mL (≈ 4.84 µM)
pH (24 h) ([1]; pH 1.2 buffer): 1.214
pH (24 h) ([1]; pH 3.0 buffer): 3.078
pH (24 h) ([1]; pH 4.5 buffer): 4.584
Solubility at 37°C (mg/mL) 2 h ([1]; pH 4.5 buffer, 37°C, 2 h): 0.00026 mg/mL (≈ 0.314 µM)
pH (24 h) ([1]; pH 6.8 buffer): 6.833
pH (24 h) ([1]; pH 7.4 buffer): 7.428
solubility at 2 h ([1]; water, 37°C, 2 h, read-out: Solubility at 37°C (mg/mL) 2 h): 0.00052 mg/mL (≈ 0.629 µM)
hygroscopic weight gain ([2]; 80% RH, 25°C): 2.213%
hygroscopicity evaluation ([2]; DVS, based on weight gain at 80% RH): hygroscopic
crystal form after DVS testing ([2]; after DVS testing): no change in the crystal form
Purity (%) ([3]; 25°C/60% RH, open, 1 week): 96.38%
XRPD ([3]; 25°C/60% RH, open, 1 week): Unchanged
Purity (%) ([3]; 40°C/75% RH, open, 1 week): 96.39%
XRPD ([3]; 40°C/75% RH, open, 1 week): Unchanged
Purity (%) ([3]; 60°C, closed, 1 week): 96.40%
XRPD ([3]; 60°C, closed, 1 week): Unchanged
Purity (%) ([3]; Initial): 96.41%
XRPD ([3]; Initial): Crystal form A
Purity (%) ([3]; Light, closed, 10 days): 96.41%
XRPD ([3]; Light, closed, 10 days): Unchanged
Purity (%) ([3]; Light, control, 10 days): 96.42%
XRPD ([3]; Light, control, 10 days): Unchanged
change in the crystal form after stability testing ([3]; all stability conditions): no change in the crystal form
degradation ([3]; all stability conditions (60°C, 25°C/60% RH, 40°C/75% RH 1 week; light 10 days)): no significant degradation
Solid color [4, 5]: Slightly deepened, yellow
XRPD results [4, 5]: Crystal form A (low degree of crystallinity)
Solid color [4, 6]: Slightly deepened, yellow
XRPD results [4, 6]: Crystal form A
Solid color [4, 7]: Slightly deepened, yellow
XRPD results [4, 7]: Crystal form A
Solid color [4, 8]: Slightly deepened, yellow
XRPD results [4, 8]: Crystal form A
degree of crystallinity of the solid ([4]; after dry grinding): reduction in the degree of crystallinity
crystal form of the solid (XRPD) ([4]; after dry grinding, wet grinding, and tableting): no change in the crystal form
Solid color ([4]; after grinding and tableting experiments, versus starting sample): slightly darker
degree of crystallinity of the solid ([4]; after wet grinding and tableting): almost no change in the degree of crystallinity
